In ChEMBL document CHEMBL3272130, “Synthesis and hypotensive activity of some cyclopentano-1,2,3,4-tetrahydroisoquinolines” (J Med Chem, 1977) one finds Activity and LD50 data, which are given here for five molecules.

The term LD50 denotes the dose expected to kill half of the subjects tested. Higher therefore signals lower toxicity.

For data set [1], the system named is Rattus norvegicus. In words: Cardiovascular activity in deoxycorticosterone acetate treated hypertensive CD rat assessed as change in heart rate at 5 mg, ip after 1 hr relative to control. It is filed as ADME, organism-based. To be noted: in vivo.
The test system of data set [2] is Rattus norvegicus. In words: Hypotensive activity in deoxycorticosterone acetate treated hypertensive CD rat assessed as change in blood pressure at 5 mg, ip after 2 hrs relative to control. The class given is functional.
Data set [3] deals with Rattus norvegicus. In words: Cardiovascular activity in deoxycorticosterone acetate treated hypertensive CD rat assessed as change in heart rate at 5 mg, ip after 24 hrs relative to control. It is filed as ADME, organism-based. The note with it: in vivo.
Data set [4] has as its system Rattus norvegicus. In words: Hypotensive activity in deoxycorticosterone acetate treated hypertensive CD rat assessed as change in blood pressure at 10 mg, ip after 4 hrs relative to control. The class given is functional.
Data set [5] has as its system Rattus norvegicus. In words: Hypotensive activity in deoxycorticosterone acetate treated hypertensive CD rat assessed as change in blood pressure at 5 mg, ip after 24 hrs relative to control. It is filed as functional.
In data set [6] the test system is Rattus norvegicus. In words: Hypotensive activity in deoxycorticosterone acetate treated hypertensive CD rat assessed as change in blood pressure at 10 mg, ip after 24 hrs relative to control. It is filed as functional.
Data set [7] deals with Rattus norvegicus. In words: Cardiovascular activity in deoxycorticosterone acetate treated hypertensive CD rat assessed as change in heart rate at 10 mg, ip after 24 hrs relative to control. To be noted: in vivo. The class given is ADME, organism-based.
The test system of data set [8] is Rattus norvegicus. As to the kind of experiment: Hypotensive activity in deoxycorticosterone acetate treated hypertensive CD rat assessed as change in blood pressure at 5 mg, ip after 4 hrs relative to control. It is filed as functional.
Data set [9] concerns Rattus norvegicus. In words: Cardiovascular activity in deoxycorticosterone acetate treated hypertensive CD rat assessed as change in heart rate at 5 mg, ip after 4 hrs relative to control. It is filed as ADME, organism-based. To be noted: in vivo.
The test system of data set [10] is Rattus norvegicus. In words: Hypotensive activity in deoxycorticosterone acetate treated hypertensive CD rat assessed as change in blood pressure at 10 mg, ip after 2 hrs relative to control. The class given is functional.
Data set [11] deals with Rattus norvegicus. As to the kind of experiment: Hypotensive activity in deoxycorticosterone acetate treated hypertensive CD rat assessed as change in blood pressure at 5 mg, ip after 1 hr relative to control. It is filed as functional.
Data set [12] concerns Rattus norvegicus. In words: Cardiovascular activity in deoxycorticosterone acetate treated hypertensive CD rat assessed as change in heart rate at 10 mg, ip after 2 hrs relative to control. The class given is ADME, organism-based. The note with it: in vivo.
Data set [13] is described as follows: Toxicity in ip dosed Swiss-Webster mouse after 24 hrs. It is filed as organism-based. The note with it: in vivo.
In data set [14] the test system is Rattus norvegicus. As to the kind of experiment: Cardiovascular activity in deoxycorticosterone acetate treated hypertensive CD rat assessed as change in heart rate at 5 mg, ip after 2 hrs relative to control. To be noted: in vivo. The class given is ADME, organism-based.
Data set [15] relates to Rattus norvegicus. As to the kind of experiment: Cardiovascular activity in deoxycorticosterone acetate treated hypertensive CD rat assessed as change in heart rate at 10 mg, ip after 4 hrs relative to control. It is filed as ADME, organism-based. The note with it: in vivo.
Data set [16] concerns Rattus norvegicus. In words: Cardiovascular activity in deoxycorticosterone acetate treated hypertensive CD rat assessed as change in heart rate at 20 mg, ip after 2 hrs relative to control. The class given is ADME, organism-based. The note with it: in vivo.
Data set [17] relates to Rattus norvegicus. In words: Cardiovascular activity in deoxycorticosterone acetate treated hypertensive CD rat assessed as change in heart rate at 20 mg, ip after 4 hrs relative to control. The class given is ADME, organism-based. To be noted: in vivo.
Data set [18] has as its system Rattus norvegicus. In words: Cardiovascular activity in deoxycorticosterone acetate treated hypertensive CD rat assessed as change in heart rate at 20 mg, ip after 24 hrs relative to control. It is filed as ADME, organism-based. The note with it: in vivo.
Data set [19] concerns Rattus norvegicus. As to the kind of experiment: Cardiovascular activity in deoxycorticosterone acetate treated hypertensive CD rat assessed as change in heart rate at 10 mg, ip after 1 hr relative to control. The class given is ADME, organism-based. The note with it: in vivo.
Data set [20] has as its system Rattus norvegicus. In words: Hypotensive activity in deoxycorticosterone acetate treated hypertensive CD rat assessed as change in blood pressure at 20 mg, ip after 1 hr relative to control. The class given is functional.
In data set [21] the test system is Rattus norvegicus. As to the kind of experiment: Hypotensive activity in deoxycorticosterone acetate treated hypertensive CD rat assessed as change in blood pressure at 20 mg, ip after 24 hrs relative to control. It is filed as functional.
Data set [22] concerns Rattus norvegicus. In words: Hypotensive activity in deoxycorticosterone acetate treated hypertensive CD rat assessed as change in blood pressure at 20 mg, ip after 4 hrs relative to control. The class given is functional.
For data set [23], the system named is Rattus norvegicus. As to the kind of experiment: Hypotensive activity in deoxycorticosterone acetate treated hypertensive CD rat assessed as change in blood pressure at 10 mg, ip after 1 hr relative to control. The class given is functional.
For data set [24], the system named is Rattus norvegicus. As to the kind of experiment: Hypotensive activity in deoxycorticosterone acetate treated hypertensive CD rat assessed as change in blood pressure at 20 mg, ip after 2 hrs relative to control. The class given is functional.
Data set [25] deals with Rattus norvegicus. In words: Cardiovascular activity in deoxycorticosterone acetate treated hypertensive CD rat assessed as change in heart rate at 20 mg, ip after 1 hr relative to control. To be noted: in vivo. It is filed as ADME, organism-based.
Data set [26] relates to Rattus norvegicus. As to the kind of experiment: Cardiovascular activity in deoxycorticosterone acetate treated hypertensive CD rat assessed as change in heart rate at 4 mg, ip after 4 hrs relative to control. It is filed as ADME, organism-based. The note with it: in vivo.
For data set [27], the system named is Rattus norvegicus. As to the kind of experiment: Hypotensive activity in deoxycorticosterone acetate treated hypertensive CD rat assessed as change in blood pressure at 4 mg, ip after 2 hrs relative to control. It is filed as functional.
In data set [28] the test system is Rattus norvegicus. As to the kind of experiment: Hypotensive activity in deoxycorticosterone acetate treated hypertensive CD rat assessed as change in blood pressure at 4 mg, ip after 1 hr relative to control. The class given is functional.
Data set [29] relates to Rattus norvegicus. In words: Cardiovascular activity in deoxycorticosterone acetate treated hypertensive CD rat assessed as change in heart rate at 4 mg, ip after 2 hrs relative to control. The note with it: in vivo. The class given is ADME, organism-based.
Data set [30] deals with Rattus norvegicus. As to the kind of experiment: Cardiovascular activity in deoxycorticosterone acetate treated hypertensive CD rat assessed as change in heart rate at 4 mg, ip after 24 hrs relative to control. It is filed as ADME, organism-based. The note with it: in vivo.
For data set [31], the system named is Rattus norvegicus. As to the kind of experiment: Hypotensive activity in deoxycorticosterone acetate treated hypertensive CD rat assessed as change in blood pressure at 4 mg, ip after 4 hrs relative to control. The class given is functional.
The test system of data set [32] is Rattus norvegicus. As to the kind of experiment: Cardiovascular activity in deoxycorticosterone acetate treated hypertensive CD rat assessed as change in heart rate at 4 mg, ip after 1 hr relative to control. The class given is ADME, organism-based. The note with it: in vivo.
The test system of data set [33] is Rattus norvegicus. As to the kind of experiment: Hypotensive activity in deoxycorticosterone acetate treated hypertensive CD rat assessed as change in blood pressure at 4 mg, ip after 24 hrs relative to control. It is filed as functional.
For data set [34], the system named is Rattus norvegicus. As to the kind of experiment: Cardiovascular activity in deoxycorticosterone acetate treated hypertensive CD rat assessed as change in heart rate at 50 mg, ip after 24 hrs relative to control. The class given is ADME, organism-based. To be noted: in vivo.
Data set [35] concerns Rattus norvegicus. As to the kind of experiment: Hypotensive activity in deoxycorticosterone acetate treated hypertensive CD rat assessed as change in blood pressure at 50 mg, ip after 24 hrs relative to control. The class given is functional.
Data set [36] concerns Rattus norvegicus. As to the kind of experiment: Hypotensive activity in deoxycorticosterone acetate treated hypertensive CD rat assessed as change in blood pressure at 25 mg, ip after 4 hrs relative to control. The class given is functional.
For data set [37], the system named is Rattus norvegicus. As to the kind of experiment: Hypotensive activity in deoxycorticosterone acetate treated hypertensive CD rat assessed as change in blood pressure at 25 mg, ip after 24 hrs relative to control. It is filed as functional.
Data set [38] concerns Rattus norvegicus. In words: Cardiovascular activity in deoxycorticosterone acetate treated hypertensive CD rat assessed as change in heart rate at 25 mg, ip after 24 hrs relative to control. It is filed as ADME, organism-based. The note with it: in vivo.
Data set [39] concerns Rattus norvegicus. In words: Hypotensive activity in deoxycorticosterone acetate treated hypertensive CD rat assessed as change in blood pressure at 25 mg, ip after 2 hrs relative to control. It is filed as functional.
For data set [40], the system named is Rattus norvegicus. As to the kind of experiment: Cardiovascular activity in deoxycorticosterone acetate treated hypertensive CD rat assessed as change in heart rate at 25 mg, ip after 4 hrs relative to control. It is filed as ADME, organism-based. To be noted: in vivo.
Data set [41] has as its system Rattus norvegicus. In words: Cardiovascular activity in deoxycorticosterone acetate treated hypertensive CD rat assessed as change in heart rate at 25 mg, ip after 1 hr relative to control. The class given is ADME, organism-based. The note with it: in vivo.
For data set [42], the system named is Rattus norvegicus. As to the kind of experiment: Cardiovascular activity in deoxycorticosterone acetate treated hypertensive CD rat assessed as change in heart rate at 25 mg, ip after 2 hrs relative to control. It is filed as ADME, organism-based. The note with it: in vivo.
The subject of data set [43] is Rattus norvegicus. In words: Hypotensive activity in deoxycorticosterone acetate treated hypertensive CD rat assessed as change in blood pressure at 25 mg, ip after 1 hr relative to control. The class given is functional.

Take `COc1c2c(c3c(c1OC)CCNC3)CCC2`: the Activity is -5.2% in [1]; -3% in [2]; -12.2% in [3]; 2.4% in data set [4]; 1.8% in [5]; 1% in data set [6]. Besides, the Activity in [7] was -2.6%; in data set [8] it was -6.5%; in data set [9], -8.5%; in [10] it was -13.2%; in [11] it was -9.5%; in data set [12], 4.7%. Besides, the Activity in data set [14] was -1.4%; in data set [15], 9%. Also, in data set [13], the LD50 at 24 h is 25 mg/kg.

As to `Br.CCC(C)CN1CCc2c3c(c(OC)c(OC)c2C1)CCC3` (centres undefined), the Activity is given as 7.3% in data set [16]; 0.7% in [4]; -2.6% in [6]; 3.4% in data set [17]; -2.4% in data set [7]; -5.5% in data set [18]. Further, the Activity in [19] is reported as 3.6%; in [20] it was -13.1%; in data set [21], -1.6%; in [10] it was -1.9%; in [22], -7%; in data set [23] it was -12.2%. The Activity is reported as -4.2% in [12], -8.1% in data set [24], 7.8% in data set [25] and -4.3% in [15]. The molecule also displayed a median lethal dose (LD50) at 24 h in data set [13] of 100 mg/kg.

For `Br.COc1c2c(c3c(c1OC)CCN(C)C3)CCC2`, the Activity is -0.4% in data set [26]; 12.2% in data set [27]; 13% in [28]; 11.2% in data set [29]; 1.8% in data set [30]; -2.6% in [31]. The Activity is 13.2% in data set [32] and 19.7% in data set [33]. In data set [13], this molecule returned an LD50 at 24 h of 10 mg/kg.

Turning to `COc1c2c(c3c(c1OC)CNCC3)CCC2`, the Activity in data set [16] was 16.9%; in data set [4], -14.2%; in data set [6], -7.2%; in data set [17], 11%; in data set [7], -9.1%; in data set [18], 7.4%. Besides, the Activity in [19] is reported as 5.8%; in [20], -3.9%; in data set [21], -0.2%; in data set [10], -3.4%; in [22], -3.9%; in data set [23], -3.1%. Further, the Activity is listed as 8.1% in data set [12]; -4% in data set [24]; 10.2% in [25]; -3.8% in [34]; 3.9% in data set [15]; -16.8% in [35]. The molecule further showed an LD50 at 24 h in data set [13] of 79 mg/kg.

For the molecule `Br.CCC(C)CN1CCc2c(c3c(c(OC)c2OC)CCC3)C1` (centres undefined), the Activity in data set [36] is listed as -6.7%; in data set [37], 1.3%; in [38], -0.3%; in [39], -12.6%; in [40] it was 5%; in [41] it was 13.7%. Moreover, the Activity in [42] was 11.8%; in data set [43] it was -17.2%. Besides, in data set [13], the LD50 at 24 h was 178 mg/kg.
